Assay results reported in article PMC9891357 (Molecular Cancer Therapeutics, 2022).

What was measured:
USP46 = USP46 (Homo sapiens, UniProt P62068); experiment: Ubiquigent DUBprofiler biochemical panel, […] inhibition at […]
USP12 = USP12 (Homo sapiens, UniProt O75317); experiment: as above
USP12, sequence (O75317 whole entry): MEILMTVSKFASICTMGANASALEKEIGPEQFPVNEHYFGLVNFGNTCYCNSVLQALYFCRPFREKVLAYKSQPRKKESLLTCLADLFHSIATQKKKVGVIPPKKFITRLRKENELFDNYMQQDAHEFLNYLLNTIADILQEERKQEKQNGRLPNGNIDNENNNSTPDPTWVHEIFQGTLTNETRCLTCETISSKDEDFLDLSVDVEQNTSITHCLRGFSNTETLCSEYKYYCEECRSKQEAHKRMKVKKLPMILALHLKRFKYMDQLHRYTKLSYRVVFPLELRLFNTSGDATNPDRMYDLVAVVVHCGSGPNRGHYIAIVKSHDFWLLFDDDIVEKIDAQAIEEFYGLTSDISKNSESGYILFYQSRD
USP12, sequence (Q8TAF3 whole entry partner): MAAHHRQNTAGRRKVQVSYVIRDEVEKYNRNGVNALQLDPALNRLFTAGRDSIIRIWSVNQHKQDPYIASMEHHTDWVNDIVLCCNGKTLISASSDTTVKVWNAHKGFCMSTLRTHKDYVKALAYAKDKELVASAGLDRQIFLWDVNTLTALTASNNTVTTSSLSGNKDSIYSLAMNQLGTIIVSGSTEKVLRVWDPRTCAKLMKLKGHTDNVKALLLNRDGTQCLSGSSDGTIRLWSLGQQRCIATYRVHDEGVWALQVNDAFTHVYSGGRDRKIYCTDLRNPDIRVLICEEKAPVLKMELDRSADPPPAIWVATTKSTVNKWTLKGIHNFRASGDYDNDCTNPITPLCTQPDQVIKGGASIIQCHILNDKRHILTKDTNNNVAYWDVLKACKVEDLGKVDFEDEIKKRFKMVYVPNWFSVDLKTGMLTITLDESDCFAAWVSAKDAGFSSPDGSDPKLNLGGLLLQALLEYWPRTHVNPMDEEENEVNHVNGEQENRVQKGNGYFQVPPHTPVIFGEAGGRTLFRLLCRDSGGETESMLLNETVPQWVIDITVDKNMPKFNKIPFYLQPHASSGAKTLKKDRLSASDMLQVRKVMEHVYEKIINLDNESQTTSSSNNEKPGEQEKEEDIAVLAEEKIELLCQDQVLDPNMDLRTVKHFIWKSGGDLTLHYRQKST

USP46, sequence (P62068 whole entry): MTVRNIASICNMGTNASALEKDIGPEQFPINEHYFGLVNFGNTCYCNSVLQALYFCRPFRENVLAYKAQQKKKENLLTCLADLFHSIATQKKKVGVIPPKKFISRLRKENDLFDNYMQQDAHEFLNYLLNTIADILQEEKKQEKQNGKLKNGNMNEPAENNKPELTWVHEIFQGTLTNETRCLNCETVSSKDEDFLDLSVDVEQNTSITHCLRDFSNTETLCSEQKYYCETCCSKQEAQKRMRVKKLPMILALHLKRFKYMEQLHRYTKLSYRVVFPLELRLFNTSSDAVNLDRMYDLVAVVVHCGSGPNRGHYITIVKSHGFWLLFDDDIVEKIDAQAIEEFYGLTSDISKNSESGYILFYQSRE
USP46, sequence (Q8TAF3 whole entry partner): as the sequence (Q8TAF3 whole entry partner) above

- IC50 (USP46): ~ 10 μmol/L
- IC50 (USP12): ~ 10 μmol/L
SMILES: CC(C)c1ccccc1-c1ncc2[nH]c(=O)n(Cc3ccc(-c4nc(C(F)(F)F)cn4C)cc3)c2n1 [I-138, 2-(2-isopropylphenyl)-9-(4-(1-methyl-4-(trifluoromethyl)-1H-imidazol-2-yl)benzyl)-7,9-dihydro-8H-purin-8-one]
